# Results from ChEMBL document CHEMBL4725289, “Structure-activity relationship studies for the development of inhibitors of murine adipose triglyceride lipase (ATGL)” (Bioorg Med Chem, 2020).
# Columns and labels:
# [1] = In vivo inhibition of ATGL in mouse assessed as decrease in plasma fatty acid release at 200 uM, ip measured up to 8 hrs; assay type: functional; conditions: time hrs <=8
# [2] = Inhibition of isoproterenol-stimulated lipolysis in ATGL-ko mouse at 200 uM, ip after 2 hrs; assay type: functional
# [3] = biological target: T1, Patatin-like phospholipase domain-containing protein 2 (Mus musculus) (UniProt Q8BJ56); assay: Inhibition of murine ATGL expressed in COS-7 cells at 200 uM relative to control; assay type: cell-based
# T1 sequence (whole entry): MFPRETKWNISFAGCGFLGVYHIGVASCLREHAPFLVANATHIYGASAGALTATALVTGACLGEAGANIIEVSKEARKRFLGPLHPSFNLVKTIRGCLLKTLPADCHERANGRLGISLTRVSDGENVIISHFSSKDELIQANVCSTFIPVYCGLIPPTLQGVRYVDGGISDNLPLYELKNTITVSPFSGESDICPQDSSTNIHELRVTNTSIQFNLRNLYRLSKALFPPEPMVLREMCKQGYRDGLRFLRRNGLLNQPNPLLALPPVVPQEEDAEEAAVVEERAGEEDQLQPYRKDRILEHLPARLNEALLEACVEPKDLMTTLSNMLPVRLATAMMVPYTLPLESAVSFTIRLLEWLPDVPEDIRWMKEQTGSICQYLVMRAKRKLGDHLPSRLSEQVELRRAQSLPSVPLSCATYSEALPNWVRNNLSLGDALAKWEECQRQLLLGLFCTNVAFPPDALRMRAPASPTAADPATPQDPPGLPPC
# [4] = biological target: T2, Patatin-like phospholipase domain-containing protein 2 (Mus musculus, UniProt Q8BJ56); assay: Inhibition of murine ATGL expressed in COS-7 cells; assay type: cell-based
# T2 sequence (Q8BJ56 whole entry): T1 sequence (whole entry)
compound,measurement,setting,value
CCOC(=O)c1cccc(-c2ccc(N(C)C)cc2)c1,inhibition in vivo at 200 µM,[1],40%
same,inhibition in vivo at 200 µM,[2],60%
same,inhibition,[3],87%
same,IC50,[4],40 µM
